Data from patent US7211572B2 (Japan Tobacco Inc., priority 2003, dated 2007).
Where a name gives a salt, the structure may show the parent alone.

Each compound was assayed against T1, HIV integrase (Human immunodeficiency virus type 1 group M subtype B, UniProt P12497, F1332H) (assay: Determination of enzyme (HIV integrase) inhibitory activity). Details: recombinant HIV integrase (F185H), strand transfer ELISA, absorbance at 450 nm.
T1 construct: HIV integrase full length gene; made in house; host or cells: Escherichia coli BL21(DE3), plasmid pET21a-INH
Assay type: biochemical
Summary of the method: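 Full-length integrase with F185H, expressed in E. coli and purified, was reacted for 60 min at 37 °C with compound and biotinylated donor DNA bound to streptavidin plates. Target DNA was added for 10 min, then anti-digoxigenin-peroxidase detection at A450; IC50 from % inhibition versus enzyme-free blank.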

First: CC(C)N(C)C(=O)c1cc(=O)c(O)c2n1CCN(Cc1ccc(Cl)c(Cl)c1)C2=O [Example 62, N-isopropyl-N-methyl-2-(3,4-dichlorobenzyl)-9-hydroxy-1,8-dioxo-1,3,4,8-tetrahydro-2H-pyrido[1,2-a]pyrazine-6-carboxamide]
Second: CCN(C)C(=O)c1cc(=O)c(O)c2n1CCN(Cc1ccc(Cl)c(Cl)c1)C2=O [Example 63, N-ethyl-N-methyl-2-(3,4-dichlorobenzyl)-9-hydroxy-1,8-dioxo-1,3,4,8-tetrahydro-2H-pyrido[1,2-a]pyrazine-6-carboxamide]
The IC50 of the first is higher: 10 to 100 nM for the first, less than 10 nM for the second. The second is the more potent here.

`O=C1c2c(O)c(=O)ccn2CCN1Cc1ccc(F)c(Cl)c1` [Example 64, 2-(3-chloro-4-fluorobenzyl)-9-hydroxy-3,4-dihydro-2H-pyrido[1,2-a]pyrazine-1,8-dione] and `COc1ccc(CN2CCn3ccc(=O)c(O)c3C2=O)cc1Cl` [Example 73, 2-(3-chloro-4-methoxybenzyl)-9-hydroxy-3,4-dihydro-2H-pyrido[1,2-a]pyrazine-1,8-dione] fall in the same range of IC50: 10 to 100 nM for the first, 10 to 100 nM for the second.

Compared with `O=C1c2c(O)c(=O)ccn2CCN1Cc1ccccc1Cl` [Example 65, 2-(2-chlorobenzyl)-9-hydroxy-3,4-dihydro-2H-pyrido[1,2-a]pyrazine-1,8-dione], `O=C1c2c(O)c(=O)ccn2CCN1Cc1cc(Cl)cc(Cl)c1` [Example 66, 2-(3,5-dichlorobenzyl)-9-hydroxy-3,4-dihydro-2H-pyrido[1,2-a]pyrazine-1,8-dione] is lower in IC50: 100 to 1000 nM for the first, 10 to 100 nM for the second.

`CC(C)(C)c1cc(=O)c(O)c2n1CCN(Cc1ccc(Cl)c(Cl)c1)C2=O` [Example 67, 6-tert-butyl-2-(3,4-dichlorobenzyl)-9-hydroxy-3,4-dihydro-2H-pyrido[1,2-a]pyrazine-1,8-dione] and `CC(C)(C)C(O)c1cc(=O)c(O)c2n1CCN(Cc1ccc(Cl)c(Cl)c1)C2=O` (stereo not drawn) [Example 68, 2-(3,4-dichlorobenzyl)-9-hydroxy-6-(1-hydroxy-2,2-dimethylpropyl)-3,4-dihydro-2H-pyrido[1,2-a]pyrazine-1,8-dione] fall in the same range of IC50: 10 to 100 nM for the first, 10 to 100 nM for the second.

`O=c1ccn2ccn(CCCc3ccc(Cl)cc3)c(=O)c2c1O` [Example 70, 2-[3-(4-chlorophenyl)propyl]-9-hydroxy-2H-pyrido[1,2-a]pyrazine-1,8-dione] and `O=c1ccn2ccn(CCCc3cccc(Cl)c3)c(=O)c2c1O` [Example 76, 2-[3-(3-chlorophenyl)propyl]-9-hydroxy-2H-pyrido[1,2-a]pyrazine-1,8-dione] fall in the same range of IC50: 10 to 100 nM for the first, 10 to 100 nM for the second.

`O=c1ccn2ccn(CCCc3ccccc3Cl)c(=O)c2c1O` [Example 71, 2-[3-(2-chlorophenyl)propyl]-9-hydroxy-2H-pyrido[1,2-a]pyrazine-1,8-dione] and `O=c1ccn2ccn(CCCc3cccc(Cl)c3Cl)c(=O)c2c1O` [Example 91, 2-[3-(2,3-dichlorophenyl)propyl]-9-hydroxy-2H-pyrido[1,2-a]pyrazine-1,8-dione hydrochloride] fall in the same range of IC50: 10 to 100 nM for the first, 10 to 100 nM for the second.

Compared with `Cc1cn(Cc2ccc(Cl)c(Cl)c2)c(=O)c2c(O)c(=O)ccn12` [Example 72, 2-(3,4-dichlorobenzyl)-9-hydroxy-4-methyl-2H-pyrido[1,2-a]pyrazine-1,8-dione hydrochloride], `CCc1cn(Cc2ccc(Cl)c(Cl)c2)c(=O)c2c(O)c(=O)ccn12` [Example 85, 2-(3,4-dichlorobenzyl)-4-ethyl-9-hydroxy-2H-pyrido[1,2-a]pyrazine-1,8-dione] is higher in IC50: less than 10 nM for the first, 10 to 100 nM for the second.

`N#CCc1cc(=O)c(O)c2n1CCN(Cc1ccc(Cl)c(Cl)c1)C2=O` [Example 75, [2-(3,4-dichlorobenzyl)-9-hydroxy-1,8-dioxo-1,3,4,8-tetrahydro-2H-pyrido[1,2-a]pyrazin-6-yl]acetonitrile] and `O=C1c2c(O)c(=O)cc(CCO)n2CCN1Cc1ccc(Cl)c(Cl)c1` [Example 83, 2-(3,4-dichlorobenzyl)-9-hydroxy-6-(2-hydroxyethyl)-3,4-dihydro-2H-pyrido[1,2-a]pyrazine-1,8-dione] fall in the same range of IC50: 10 to 100 nM for the first, 10 to 100 nM for the second.

`CC(C)c1cn(Cc2ccc(Cl)c(Cl)c2)c(=O)c2c(O)c(=O)ccn12` [Example 78, 2-(3,4-dichlorobenzyl)-9-hydroxy-4-isopropyl-2H-pyrido[1,2-a]pyrazine-1,8-dione] and `CC(C)c1cn(Cc2ccc(F)c(Cl)c2)c(=O)c2c(O)c(=O)ccn12` [Example 92, 2-(3-chloro-4-fluorobenzyl)-9-hydroxy-4-isopropyl-2H-pyrido[1,2-a]pyrazine-1,8-dione hydrochloride] cannot be ordered by IC50: less than 10 nM for the first, less than 10 nM for the second.

`O=c1ccn2ccn(CCCc3ccc(Cl)c(Cl)c3)c(=O)c2c1O` [Example 79, 2-[3-(3,4-dichlorophenyl)propyl]-9-hydroxy-2H-pyrido[1,2-a]pyrazine-1,8-dione] and `O=c1ccn2ccn(CCCc3cc(Cl)cc(Cl)c3)c(=O)c2c1O` [Example 80, 2-[3-(3,5-dichlorophenyl)propyl]-9-hydroxy-2H-pyrido[1,2-a]pyrazine-1,8-dione] fall in the same range of IC50: 10 to 100 nM for the first, 10 to 100 nM for the second.

First: O=C(Cc1cc(=O)c(O)c2n1CCN(Cc1ccc(Cl)c(Cl)c1)C2=O)OCc1ccccc1 [Example 81]
Second: O=C(OCc1ccccc1)C(Cc1ccccc1)c1cc(=O)c(O)c2n1CCN(Cc1ccc(Cl)c(Cl)c1)C2=O (stereo not drawn) [Example 82, benzyl 2-[2-(3,4-dichlorobenzyl)-9-hydroxy-1,8-dioxo-1,3,4,8-tetrahydro-2H-pyrido[1,2-a]pyrazin-6-yl]-3-phenylpropionate]
The IC50 of the first is lower: less than 10 nM for the first, 10 to 100 nM for the second. The first is the more potent here.

`CCCc1cn(Cc2ccc(Cl)c(Cl)c2)c(=O)c2c(O)c(=O)ccn12` [Example 84, 2-(3,4-dichlorobenzyl)-9-hydroxy-4-propyl-2H-pyrido[1,2-a]pyrazine-1,8-dione] and `O=c1ccn2c(CO)cn(Cc3ccc(Cl)c(Cl)c3)c(=O)c2c1O` [Example 86, 2-(3,4-dichlorobenzyl)-9-hydroxy-4-hydroxymethyl-2H-pyrido[1,2-a]pyrazine-1,8-dione] cannot be ordered by IC50: less than 10 nM for the first, less than 10 nM for the second.

First: CC(C)Cc1cn(Cc2ccc(Cl)c(Cl)c2)c(=O)c2c(O)c(=O)ccn12 [Example 87, 2-(3,4-dichlorobenzyl)-9-hydroxy-4-isobutyl-2H-pyrido[1,2-a]pyrazine-1,8-dione]
Second: COC(=O)c1cn(Cc2ccc(Cl)c(Cl)c2)c(=O)c2c(O)c(=O)ccn12 [Example 89, methyl 2-(3,4-dichlorobenzyl)-9-hydroxy-1,8-dioxo-1,8-dihydro-2H-pyrido[1,2-a]pyrazine-4-carboxylate]
The IC50 of the first is lower: less than 10 nM for the first, 10 to 100 nM for the second.

First: O=c1ccn2ccn(Cc3cccc(Cl)c3)c(=O)c2c1O [Example 88, 2-(3-chlorobenzyl)-9-hydroxy-2H-pyrido[1,2-a]pyrazine-1,8-dione hydrochloride]
Second: O=c1ccn2ccn(Cc3ccc(F)c(Cl)c3)c(=O)c2c1O [Example 90, 2-(3-chloro-4-fluorobenzyl)-9-hydroxy-2H-pyrido[1,2-a]pyrazine-1,8-dione hydrochloride]
The IC50 of the first is higher: 10 to 100 nM for the first, less than 10 nM for the second.

`COC(=O)c1cn(Cc2cccc(Cl)c2)c(=O)c2c(O)c(=O)ccn12` [Example 93, methyl 2-(3-chlorobenzyl)-9-hydroxy-1,8-dioxo-1,8-dihydro-2H-pyrido[1,2-a]pyrazine-4-carboxylate] and `O=c1c(Br)cn2ccn(Cc3cccc(Cl)c3)c(=O)c2c1O` [Example 94, 7-bromo-2-(3-chlorobenzyl)-9-hydroxy-2H-pyrido[1,2-a]pyrazine-1,8-dione hydrochloride] fall in the same range of IC50: 10 to 100 nM for the first, 10 to 100 nM for the second.
